Test results as given in PubChem BioAssay AID1963850 (Molecular Pharmacology Branch, DTP, NCI, 2024).

Tested on: 192522-019-R-J2-PDC complex tumor spheroid viability
Assay: Anticancer human tumor 192522-019-R-J2-PDC patient-derived colon adenocarcinoma cell line growth inhibition [POLQ]
Settings: for IC50: curve of first compound; for viability, T/C: stronger effect = lower value
Method in brief: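 Patient-derived tumour cells were co-cultured with HUVEC and mesenchymal stem cells as multicellular spheroids at 37 °C. They were treated with POLQ inhibitors (novobiocin, ART-558, RP6685) alone or combined with other agents. Top concentrations were at or near clinical Cmax (otherwise 10 microM; SN-38 at 1 microM), decreasing in half-log steps.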

[1] = second compound 0.0316 µM, first compound 0.00316 µM
[2] = second compound 0.0316 µM, first compound 0.01 µM
[3] = second compound 0.0316 µM, first compound 0.0316 µM
[4] = second compound 0.0316 µM, first compound 0.1 µM
[5] = second compound 0.1 µM, first compound 0.00316 µM
[6] = second compound 0.1 µM, first compound 0.01 µM
[7] = second compound 0.1 µM, first compound 0.0316 µM
[8] = second compound 0.1 µM, first compound 0.1 µM
[9] = second compound 0.316 µM, first compound 0.00316 µM
[10] = second compound 0.316 µM, first compound 0.01 µM
[11] = second compound 0.316 µM, first compound 0.0316 µM
[12] = second compound 0.316 µM, first compound 0.1 µM
[13] = second compound 1 µM, first compound 0.00316 µM
[14] = second compound 1 µM, first compound 0.01 µM
[15] = second compound 1 µM, first compound 0.0316 µM
[16] = second compound 1 µM, first compound 0.1 µM
[17] = second compound 3.16 µM, first compound 0.00316 µM
[18] = second compound 3.16 µM, first compound 0.01 µM
[19] = second compound 3.16 µM, first compound 0.0316 µM
[20] = second compound 3.16 µM, first compound 0.1 µM
[21] = second compound 10 µM, first compound 0.00316 µM
[22] = second compound 10 µM, first compound 0.01 µM
[23] = second compound 10 µM, first compound 0.0316 µM
[24] = second compound 10 µM, first compound 0.1 µM
[25] = second compound 0.0316 µM, first compound 0.316 µM
[26] = second compound 0.0316 µM, first compound 1 µM
[27] = second compound 0.0316 µM, first compound 3.16 µM
[28] = second compound 0.0316 µM, first compound 10 µM
[29] = second compound 0.1 µM, first compound 0.316 µM
[30] = second compound 0.1 µM, first compound 1 µM
[31] = second compound 0.1 µM, first compound 3.16 µM
[32] = second compound 0.1 µM, first compound 10 µM
[33] = second compound 0.316 µM, first compound 0.316 µM
[34] = second compound 0.316 µM, first compound 1 µM
[35] = second compound 0.316 µM, first compound 3.16 µM
[36] = second compound 0.316 µM, first compound 10 µM
[37] = second compound 1 µM, first compound 0.316 µM
[38] = second compound 1 µM, first compound 1 µM
[39] = second compound 1 µM, first compound 3.16 µM
[40] = second compound 1 µM, first compound 10 µM
[41] = second compound 3.16 µM, first compound 0.316 µM
[42] = second compound 3.16 µM, first compound 1 µM
[43] = second compound 3.16 µM, first compound 3.16 µM
[44] = second compound 3.16 µM, first compound 10 µM
[45] = second compound 10 µM, first compound 0.316 µM
[46] = second compound 10 µM, first compound 1 µM
[47] = second compound 10 µM, first compound 3.16 µM
[48] = second compound 10 µM, first compound 10 µM
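Further: spheroids exposed to drugs for seven days before reading.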
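Wherever viability, T/C is given: 100% = DMSO vehicle control viability in luminescence.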

CC[C@@]1(O)C(=O)OCc2c1cc1n(c2=O)Cc2cc3c(CN(C)C)c(O)ccc3nc2-1 + Cc1cccc(N(C)C(=O)C2C(O)CCN2c2nc(C)cc(C(F)(F)F)c2C#N)c1
IC50 (second compound 0.0316 µM): > 100 nM | IC50 (second compound 0.1 µM): > 100 nM | IC50 (second compound 0.316 µM): > 100 nM | IC50 (second compound 1 µM): > 100 nM | IC50 (second compound 3.16 µM): > 100 nM | IC50 (second compound 10 µM): > 100 nM | viability, T/C (second compound 0.0316 µM, first compound 0.000316 µM): 116% | viability, T/C (second compound 0.0316 µM, first compound 0.001 µM): 93.7% | viability, T/C [1]: 103% | viability, T/C [2]: 99.2% | viability, T/C [3]: 98.7% | viability, T/C [4]: 62.4% | viability, T/C (second compound 0.1 µM, first compound 0.000316 µM): 106% | viability, T/C (second compound 0.1 µM, first compound 0.001 µM): 98.4% | viability, T/C [5]: 102% | viability, T/C [6]: 94.5% | viability, T/C [7]: 88% | viability, T/C [8]: 64.5% | viability, T/C (second compound 0.316 µM, first compound 0.000316 µM): 102% | viability, T/C (second compound 0.316 µM, first compound 0.001 µM): 106% | viability, T/C [9]: 104% | viability, T/C [10]: 102% | viability, T/C [11]: 93.8% | viability, T/C [12]: 70% | viability, T/C (second compound 1 µM, first compound 0.000316 µM): 106% | viability, T/C (second compound 1 µM, first compound 0.001 µM): 106% | viability, T/C [13]: 111% | viability, T/C [14]: 102% | viability, T/C [15]: 96.2% | viability, T/C [16]: 75.2% | viability, T/C (second compound 3.16 µM, first compound 0.000316 µM): 99.2% | viability, T/C (second compound 3.16 µM, first compound 0.001 µM): 114% | viability, T/C [17]: 115% | viability, T/C [18]: 98.4% | viability, T/C [19]: 102% | viability, T/C [20]: 79.5% | viability, T/C (second compound 10 µM, first compound 0.000316 µM): 110% | viability, T/C (second compound 10 µM, first compound 0.001 µM): 107% | viability, T/C [21]: 120% | viability, T/C [22]: 102% | viability, T/C [23]: 95.3% | viability, T/C [24]: 75%

CC1COCCN1c1cc(C2(O)CC3CCC(C2)O3)c2cnn(-c3ccn[nH]3)c2n1 (stereo not drawn) + COC1C(OC(N)=O)C(O)C(Oc2ccc3c(O)c(NC(=O)c4ccc(O)c(CC=C(C)C)c4)c(=O)oc3c2C)OC1(C)C
IC50 (second compound 0.0316 µM): 227 nM | IC50 (second compound 0.1 µM): 242 nM | IC50 (second compound 0.316 µM): 314 nM | IC50 (second compound 1 µM): 254 nM | IC50 (second compound 3.16 µM): 239 nM | IC50 (second compound 10 µM): 247 nM | viability, T/C [3]: 95.5% | viability, T/C [4]: 70.3% | viability, T/C [25]: 41.9% | viability, T/C [26]: 33.7% | viability, T/C [27]: 42.8% | viability, T/C [28]: 46.5% | viability, T/C [7]: 102% | viability, T/C [8]: 81.8% | viability, T/C [29]: 39.8% | viability, T/C [30]: 33% | viability, T/C [31]: 41.6% | viability, T/C [32]: 47% | viability, T/C [11]: 101% | viability, T/C [12]: 83.4% | viability, T/C [33]: 50.8% | viability, T/C [34]: 36.9% | viability, T/C [35]: 40.7% | viability, T/C [36]: 48.5% | viability, T/C [15]: 96.3% | viability, T/C [16]: 73.5% | viability, T/C [37]: 45% | viability, T/C [38]: 33.5% | viability, T/C [39]: 41.7% | viability, T/C [40]: 53.1% | viability, T/C [19]: 94% | viability, T/C [20]: 77.4% | viability, T/C [41]: 39.8% | viability, T/C [42]: 34.4% | viability, T/C [43]: 41.3% | viability, T/C [44]: 49.1% | viability, T/C [23]: 93.1% | viability, T/C [24]: 70.8% | viability, T/C [45]: 42.1% | viability, T/C [46]: 38.5% | viability, T/C [47]: 45.9% | viability, T/C [48]: 51%

C=CCn1c(=O)c2cnc(Nc3ccc(N4CCN(C)CC4)cc3)nc2n1-c1cccc(C(C)(C)O)n1 + COC1C(OC(N)=O)C(O)C(Oc2ccc3c(O)c(NC(=O)c4ccc(O)c(CC=C(C)C)c4)c(=O)oc3c2C)OC1(C)C
IC50 (second compound 0.0316 µM): 664 nM | IC50 (second compound 0.1 µM): 675 nM | IC50 (second compound 0.316 µM): 656 nM | IC50 (second compound 1 µM): 704 nM | IC50 (second compound 3.16 µM): 737 nM | IC50 (second compound 10 µM): 761 nM | viability, T/C [1]: 108% | viability, T/C [2]: 87.3% | viability, T/C [3]: 98.5% | viability, T/C [4]: 93.9% | viability, T/C [25]: 89.2% | viability, T/C [26]: 28.2% | viability, T/C [5]: 101% | viability, T/C [6]: 93.8% | viability, T/C [7]: 98% | viability, T/C [8]: 90.3% | viability, T/C [29]: 82.2% | viability, T/C [30]: 33.7% | viability, T/C [9]: 98.6% | viability, T/C [10]: 91.6% | viability, T/C [11]: 99.4% | viability, T/C [12]: 105% | viability, T/C [33]: 74.5% | viability, T/C [34]: 35.9% | viability, T/C [13]: 95.4% | viability, T/C [14]: 96.1% | viability, T/C [15]: 103% | viability, T/C [16]: 106% | viability, T/C [37]: 84.3% | viability, T/C [38]: 34.9% | viability, T/C [17]: 92.6% | viability, T/C [18]: 95.4% | viability, T/C [19]: 90.7% | viability, T/C [20]: 93.5% | viability, T/C [41]: 88% | viability, T/C [42]: 36.2% | viability, T/C [21]: 98.3% | viability, T/C [22]: 97.3% | viability, T/C [23]: 102% | viability, T/C [24]: 90% | viability, T/C [45]: 96.2% | viability, T/C [46]: 35.7%

COc1ccc([C@@H](O)c2cc(-c3ncnc4cc(N5CCOCC5)ccc34)c(F)cc2Cl)nn1 + COC1C(OC(N)=O)C(O)C(Oc2ccc3c(O)c(NC(=O)c4ccc(O)c(CC=C(C)C)c4)c(=O)oc3c2C)OC1(C)C
IC50 (second compound 0.0316 µM): > 10000 nM | IC50 (second compound 0.1 µM): > 10000 nM | IC50 (second compound 0.316 µM): > 10000 nM | IC50 (second compound 1 µM): > 10000 nM | IC50 (second compound 3.16 µM): > 10000 nM | IC50 (second compound 10 µM): > 10000 nM | viability, T/C [3]: 105% | viability, T/C [4]: 87.2% | viability, T/C [25]: 120% | viability, T/C [26]: 97.7% | viability, T/C [27]: 99.8% | viability, T/C [28]: 63.1% | viability, T/C [7]: 109% | viability, T/C [8]: 97.6% | viability, T/C [29]: 106% | viability, T/C [30]: 95.5% | viability, T/C [31]: 88.1% | viability, T/C [32]: 62.4% | viability, T/C [11]: 117% | viability, T/C [12]: 93.2% | viability, T/C [33]: 103% | viability, T/C [34]: 107% | viability, T/C [35]: 97.8% | viability, T/C [36]: 68.5% | viability, T/C [15]: 109% | viability, T/C [16]: 106% | viability, T/C [37]: 104% | viability, T/C [38]: 92.9% | viability, T/C [39]: 86.8% | viability, T/C [40]: 63.1% | viability, T/C [19]: 96% | viability, T/C [20]: 99.2% | viability, T/C [41]: 117% | viability, T/C [42]: 84.9% | viability, T/C [43]: 98.1% | viability, T/C [44]: 72.9% | viability, T/C [23]: 103% | viability, T/C [24]: 104% | viability, T/C [45]: 114% | viability, T/C [46]: 108% | viability, T/C [47]: 99.2% | viability, T/C [48]: 66.9%
